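Where inhibition never reached the appropriate level, the endpoint shown equals the highest concentration tested. Otherwise, values were interpolated linearly from a five-concentration, 48-hour dose response in 96-well plates. The concentration for 50% growth inhibition is given as GI50.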 The source made the active and inactive calls. Cut-off read from the data, not from the text of the source: active = GI50 up to about 1.1 µM and inactive = higher.
Assays:
Experiment in all cases: NCI tumour cell line growth inhibition, 48 h
SF-539 = tested on: SF-539
CCRF-CEM = tested on: CCRF-CEM
KM-20L2 = tested on: KM-20L2
UACC-62 = tested on: UACC-62
CAKI-1 = tested on: CAKI-1
EKVX = tested on: EKVX
HL-60 = tested on: HL-60
ACHN = tested on: ACHN
SN12C = tested on: SN12C
HOP-62 = tested on: HOP-62
Malme-3M = tested on: Malme-3M
LOX IMVI = tested on: LOX IMVI
OVCAR-5 = tested on: OVCAR-5
UACC-257 = tested on: UACC-257
HCT-116 = tested on: HCT-116
786-0 = tested on: 786-0

Structure (SMILES) | GI50 (SF-539) | GI50 (CCRF-CEM) | GI50 (KM-20L2) | GI50 (UACC-62) | GI50 (CAKI-1) | GI50 (EKVX) | GI50 (HL-60) | GI50 (ACHN) | GI50 (SN12C) | GI50 (HOP-62) | GI50 (Malme-3M) | GI50 (LOX IMVI) | GI50 (OVCAR-5) | GI50 (UACC-257) | GI50 (HCT-116) | GI50 (786-0)
CCOC(=O)C(=CNC(Cc1c[nH]c2ccccc12)C(=O)OC)C(=O)OCC (stereo unspecified) | > 100 µM (inactive) | > 100 µM (inactive) | > 100 µM (inactive) | 71.1 µM (inactive) | > 100 µM (inactive) | > 100 µM (inactive) | > 100 µM (inactive) | > 100 µM (inactive) | > 100 µM (inactive) | < 0.01 µM (active) | > 100 µM (inactive) | > 100 µM (inactive) | – | – | – | –
CC1C(=O)OC2CC[N+]3(CC(=O)c4ccc(Br)cc4)CC=C(COC(=O)C(C)(O)C1(C)O)C23 (stereo unspecified) | > 375 µM (inactive) | > 375 µM (inactive) | > 37.5 µM (inactive) | > 375 µM (inactive) | > 375 µM (inactive) | > 375 µM (inactive) | 361 µM (inactive) | – | > 375 µM (inactive) | > 375 µM (inactive) | > 375 µM (inactive) | > 375 µM (inactive) | > 375 µM (inactive) | > 375 µM (inactive) | > 375 µM (inactive) | –
CCC(O)(c1ccc(OC)cc1)C(c1ccc(OCc2ccccc2)cc1)c1ccc(OCc2ccccc2)cc1 (stereo unspecified) | > 100 µM (inactive) | > 100 µM (inactive) | > 100 µM (inactive) | > 100 µM (inactive) | > 100 µM (inactive) | > 100 µM (inactive) | > 100 µM (inactive) | > 100 µM (inactive) | 99.5 µM (inactive) | > 100 µM (inactive) | > 100 µM (inactive) | > 100 µM (inactive) | > 100 µM (inactive) | > 100 µM (inactive) | > 100 µM (inactive) | > 100 µM (inactive)
C#CCOc1c(C(=O)OCC)c(=O)n(C)c2ccccc12 | > 100 µM (inactive) | > 100 µM (inactive) | > 100 µM (inactive) | > 100 µM (inactive) | > 100 µM (inactive) | > 100 µM (inactive) | > 100 µM (inactive) | > 100 µM (inactive) | > 100 µM (inactive) | < 0.01 µM (active) | > 100 µM (inactive) | > 100 µM (inactive) | – | – | – | –
CC1=Nc2c(ccc3c2C(=O)c2ccccc2C3=O)NC(c2ccncc2)C1 (stereo unspecified) | > 10 µM (inactive) | 0.515 µM (active) | > 10 µM (inactive) | 62.4 µM (inactive) | 7.98 µM (inactive) | > 10 µM (inactive) | 0.798 µM (active) | 6.75 µM (inactive) | 57.4 µM (inactive) | 35.1 µM (inactive) | > 10 µM (inactive) | 34.8 µM (inactive) | 95.1 µM (inactive) | > 10 µM (inactive) | 41.5 µM (inactive) | > 10 µM (inactive)
COC(=O)CC(c1ccccc1)C1(c2ccccc2)SCCS1 (stereo unspecified) | > 290 µM (inactive) | 105 µM (inactive) | > 290 µM (inactive) | 142 µM (inactive) | 262 µM (inactive) | > 290 µM (inactive) | 141 µM (inactive) | > 290 µM (inactive) | 185 µM (inactive) | 266 µM (inactive) | > 290 µM (inactive) | 130 µM (inactive) | > 290 µM (inactive) | > 290 µM (inactive) | 101 µM (inactive) | > 290 µM (inactive)
O=C(N/C(=C\c1cccc([N+](=O)[O-])c1)c1nc2c(O)nc(S)nc2[nH]1)c1ccccc1 | > 100 µM (inactive) | > 100 µM (inactive) | > 100 µM (inactive) | > 100 µM (inactive) | > 100 µM (inactive) | > 100 µM (inactive) | 69.3 µM (inactive) | > 100 µM (inactive) | > 100 µM (inactive) | > 100 µM (inactive) | > 100 µM (inactive) | > 100 µM (inactive) | > 100 µM (inactive) | > 100 µM (inactive) | > 100 µM (inactive) | > 100 µM (inactive)
Cc1ccccc1NC(=O)C(=O)CC(=O)c1sc(-n2nc(-c3ccccc3)cc2-c2ccccc2)nc1C | > 100 µM (inactive) | > 100 µM (inactive) | > 100 µM (inactive) | > 100 µM (inactive) | > 100 µM (inactive) | > 100 µM (inactive) | > 100 µM (inactive) | > 100 µM (inactive) | > 100 µM (inactive) | > 100 µM (inactive) | > 100 µM (inactive) | > 100 µM (inactive) | > 100 µM (inactive) | > 100 µM (inactive) | > 100 µM (inactive) | > 100 µM (inactive)
COC1C=COC2(C)Oc3c(C)c(O)c4c(O)c(c(/C=N/N5CCN(N)CC5)c(O)c4c3C2=O)NC(=O)C(C)=CC=CC(C)C(O)C(C)C(O)C(C)C(OC(C)=O)C1C (stereo unspecified) | > 100 µM (inactive) | 20.1 µM (inactive) | > 100 µM (inactive) | > 100 µM (inactive) | > 100 µM (inactive) | > 100 µM (inactive) | 35.2 µM (inactive) | > 100 µM (inactive) | > 100 µM (inactive) | > 100 µM (inactive) | > 100 µM (inactive) | 69 µM (inactive) | > 100 µM (inactive) | > 100 µM (inactive) | 30.7 µM (inactive) | > 100 µM (inactive)
N=S(=O)(c1ccccc1)c1ccccc1 | > 100 µM (inactive) | 24.2 µM (inactive) | > 100 µM (inactive) | > 100 µM (inactive) | > 100 µM (inactive) | > 100 µM (inactive) | > 100 µM (inactive) | > 100 µM (inactive) | > 100 µM (inactive) | > 100 µM (inactive) | > 100 µM (inactive) | > 100 µM (inactive) | > 100 µM (inactive) | > 100 µM (inactive) | > 100 µM (inactive) | –
CC(SC1=CC(=O)c2c(Cl)ccc(O)c2C1=O)C(=O)O (stereo unspecified) | 18.3 µM (inactive) | 5.25 µM (inactive) | 74.6 µM (inactive) | – | – | 21.3 µM (inactive) | 2.79 µM (inactive) | – | 16.7 µM (inactive) | – | 19.7 µM (inactive) | 10.1 µM (inactive) | – | 15.8 µM (inactive) | 17.8 µM (inactive) | –
Nc1nc(=O)[nH][nH]1 | > 100 µM (inactive) | > 100 µM (inactive) | > 100 µM (inactive) | > 100 µM (inactive) | > 100 µM (inactive) | > 100 µM (inactive) | > 100 µM (inactive) | – | > 100 µM (inactive) | > 100 µM (inactive) | > 100 µM (inactive) | > 100 µM (inactive) | > 100 µM (inactive) | > 100 µM (inactive) | > 100 µM (inactive) | –
O=C1C(=O)N(c2cc(Cl)ccc2Cl)C(=O)C(=O)C1c1nc2ccccc2s1 | > 100 µM (inactive) | 62.4 µM (inactive) | > 100 µM (inactive) | > 100 µM (inactive) | > 100 µM (inactive) | > 100 µM (inactive) | > 100 µM (inactive) | > 100 µM (inactive) | > 100 µM (inactive) | > 100 µM (inactive) | > 100 µM (inactive) | > 100 µM (inactive) | > 100 µM (inactive) | 98.2 µM (inactive) | 66.5 µM (inactive) | > 100 µM (inactive)
CC(C)(C)[Si](C)(C)O/N=C\c1cccc(O[Si](C)(C)C(C)(C)C)c1 | 21.9 µM (inactive) | 19.3 µM (inactive) | 20.1 µM (inactive) | 16.7 µM (inactive) | 24.8 µM (inactive) | 18.5 µM (inactive) | 18.3 µM (inactive) | 17.9 µM (inactive) | 19.9 µM (inactive) | 22.8 µM (inactive) | 42.4 µM (inactive) | 19.2 µM (inactive) | 20.1 µM (inactive) | 21.9 µM (inactive) | 18.6 µM (inactive) | 19.2 µM (inactive)
CCCCN/C(=N\C#N)N(Cc1ccccc1)Cc1ccccc1 | 22.2 µM (inactive) | 16.7 µM (inactive) | 20.8 µM (inactive) | 15.4 µM (inactive) | 29.1 µM (inactive) | 28.2 µM (inactive) | 18.9 µM (inactive) | 29.7 µM (inactive) | 27.7 µM (inactive) | 26.6 µM (inactive) | 37.2 µM (inactive) | 15.5 µM (inactive) | 23.5 µM (inactive) | 20.5 µM (inactive) | 20.8 µM (inactive) | 29.9 µM (inactive)
COc1cc2c[n+](C)c3c4cc(OC)c(OC(C)C)cc4ccc3c2cc1OC | > 100 µM (inactive) | 56.2 µM (inactive) | 62.7 µM (inactive) | 37.3 µM (inactive) | > 100 µM (inactive) | > 100 µM (inactive) | 35.2 µM (inactive) | > 100 µM (inactive) | 37.8 µM (inactive) | > 100 µM (inactive) | 29.4 µM (inactive) | 46.5 µM (inactive) | 69.7 µM (inactive) | 29.4 µM (inactive) | > 100 µM (inactive) | > 100 µM (inactive)
CN(C)CCCOc1ccc(/C=C2/CCC/C(=C/c3ccc(OCCCN(C)C)cc3)C2=O)cc1 | 1.6 µM (inactive) | 0.824 µM (active) | 0.232 µM (active) | 1.91 µM (inactive) | – | 3.95 µM (inactive) | 1.97 µM (inactive) | 1.99 µM (inactive) | 1.39 µM (inactive) | 1.82 µM (inactive) | 1.78 µM (inactive) | 1.51 µM (inactive) | 0.239 µM (active) | 2.03 µM (inactive) | 1.37 µM (inactive) | 1.3 µM (inactive)
CN(c1n[n+]2c(-c3ccccc3)csc2s1)c1n[n+]2c(-c3ccccc3)csc2s1 | > 100 µM (inactive) | 68.9 µM (inactive) | > 100 µM (inactive) | > 100 µM (inactive) | – | > 100 µM (inactive) | 47.6 µM (inactive) | > 100 µM (inactive) | > 100 µM (inactive) | – | 26.3 µM (inactive) | > 100 µM (inactive) | > 100 µM (inactive) | > 100 µM (inactive) | > 100 µM (inactive) | > 100 µM (inactive)

Reference: ChEMBL document CHEMBL1201862, “PubChem BioAssay data set” (2004)
